Experiments:
[1] = cited from earlier work
[2] = Comparative particle size distribution; assay type: physicochemical
Text: Comparative particle size distribution of unmilled acitretin, air-jet milled acitretin, oil-milled and wet milled solid dispersion of acitretin.

Row | SMILES | Solubility in water [1] | Particle size D10 [2] | Particle size D50 [2] | Particle size D90 [2]
1 | COc1cc(C)c(/C=C/C(C)=C/C=C/C(C)=C/C(=O)O)c(C)c1C [Acitretin] | practically insoluble |  |  | 
2 | COc1cc(C)c(/C=C/C(C)=C/C=C/C(C)=C/C(=O)O)c(C)c1C [Air-jet milled acitretin, acitretin] |  | 2.13 microns | 5.51 microns | 14.48 microns
3 | COc1cc(C)c(/C=C/C(C)=C/C=C/C(C)=C/C(=O)O)c(C)c1C [Unmilled acitretin, acitretin] |  | 11.14 microns | 39.59 microns | 105.0 microns

From US20070099996A1, “Pharmaceutical compositions of acitretin” (priority 2003, published 2007)
